Measurements taken from US9890147B2 (BAYER PHARMA AKTIENGESELLSCHAFT, priority 2012, dated 2018).

How the values were obtained:
MOLP-8 cells = test: Cell proliferation assay (alamarBlue), MOLP-8; assay type: cell-based; details: Homo sapiens, 120 hours incubation, inhibition of cell proliferation
Summary of the method: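 MOLP-8 cells in RPMI1640 with 20% FCS, 4000 cells/well, treated overnight after seeding with substance at 1E-5 to 1E-8 M for 120 h at 37° C. Viability read by alamarBlue fluorescence (ex 530, em 590); pre-treatment values subtracted, compared with buffer-only cells to derive IC50.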

Caov-3 cells = test: Cell proliferation assay (alamarBlue), Caov-3; assay type: cell-based; details: Homo sapiens; inhibition of cell proliferation, Caov-3 (ovarian carcinoma), 96 hours
Summary of the method: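 Caov-3 (MEM Earle's, 10% FCS, 2000 cells/well) and MDA-MB-231 (DMEM/Ham's F12, 10% FCS, 4000 cells/well) were treated after overnight attachment with 1E-5 to 1E-8 M compound. Caov-3 exposure was 96 h. alamarBlue fluorescence (ex 530, em 590 nm) was read after background subtraction of day-0 values, and IC50 calculated versus buffer-treated cells.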

BRD4 (BD1) = target: T1, BRD4 (BD1) (Homo sapiens, UniProt O60885); test: Binding assay BRD4/acetylated peptide H4 (TR-FRET protein-protein interaction assay)
T1 construct: with relatively long constructs also being possible, preferably amino acids 44-168; made in house; host or cells: E. coli
Summary of the method: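 His6-BRD4 BD1 (aa 67-152, E. coli), usually 10 nM, with biotinylated tetra-acetylated H4 peptide in HEPES pH 7.5 buffer; 11 compound concentrations 0.1 nM–20 μM in duplicate, 10 min preincubation, 1 h at 22 °C then ≥3 h at 4 °C. TR-FRET 665/620 ratio; IC50 by 4-parameter fit.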

KMS-12-PE cells = test: Cell proliferation assay (alamarBlue), KMS-12-PE; assay type: cell-based; details: Homo sapiens, 120 hours incubation, inhibition of cell proliferation
Summary of the method: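 KMS-12-PE myeloma cells in RPMI1640 with 20% FCS were exposed to compound (1E-5 to 1E-8 M) for 120 h at 37° C. AlamarBlue fluorescence (ex 530, em 590 nm) read before and after treatment; the difference versus buffer-treated cells gave IC50.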

MOLM-13 cells = test: Cell proliferation assay (alamarBlue), MOLM-13; assay type: cell-based; details: Homo sapiens, 96 hours incubation, inhibition of cell proliferation
Summary of the method: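 Cells in RPMI1640/10% FCS read by alamarBlue fluorescence (ex 530, em 590 nm) after overnight 37 °C incubation, then treated at 1E-5 to 1E-8 M for 96 h. Pre-treatment values subtracted from endpoint values and compared with buffer-only wells; IC50 is 50% proliferation inhibition.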

LOX-IMVI cells = test: Cell proliferation assay (alamarBlue), LOX-IMVI; assay type: cell-based; details: Homo sapiens, 72 hours incubation, inhibition of cell proliferation
Summary of the method: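 Cells seeded at 1000/well in RPMI1640 with 10% FCS, incubated overnight at 37° C, then treated with dilutions from 1E-5 to 1E-8 M for 72 h. Viability read by alamarBlue fluorescence (ex 530/em 590 nm); pre-treatment values subtracted and compared with buffer-only cells to derive IC50.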

MV4-11 cells = test: Cell proliferation assay (alamarBlue), MV4-11; assay type: cell-based; details: Homo sapiens, 72 hours incubation, inhibition of cell proliferation
Summary of the method: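 Cells seeded at 5000/well in RPMI1640 + 10% FCS, incubated overnight at 37° C, then treated with compound (1E-5 to 1E-8 M) for 72 h at 37° C. Viability by alamarBlue fluorescence (ex 530/em 590 nm); pre-treatment readings subtracted, IC50 derived versus buffer-treated cells.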

B16F10 cells = test: Cell proliferation assay (alamarBlue), B16F10; assay type: cell-based; details: Mus musculus, B16-F10, 96 hours incubation, inhibition of cell proliferation
Protocol: (§1) In accordance with the invention, the capability of the substances to inhibit cell proliferation was determined Cell viability was determined using the alamarBlue® reagent (Invitrogen) in a Victor X3 Multilabel Reader (Perkin Elmer). The excitation wavelength was 530 nm and the emission wavelenth […].
The B16F10 cells (ATCC, CRL-6475) were sown at a concentration of 300-500 cells/well in 100 μl growth medium (DMEM with phenol red, 10% FCS) on 96-well microtitre plates.
(§2) After an overnight incubation at 37° C., the fluorescence values (CI values) were determined. The plates were then treated with various substance dilutions (1E-5 M, 3E-6 M, 1E-6M, 3E-7 M, 1E-7 M, 3E-8 M, 1E-8 M) and incubated at 37° C. for 72 (MV4-11-, LOX-IMVI cells), 96 (MOLM-13-, B16F10-, MDA-MB-431-, Caov-3 cells), 120 (MOLP-8-, KMS-12-PE cells) or 168 (LAPC-4 cells) hours. The fluorescence values (CO values) were then determined. For the data analysis, the CI values were subtracted from the CO values and the results were compared between cells treated with different dilutions of the substance or with buffer solution only. These were used to calculate the IC 50 values (substance concentration required for 50% inhibition of cell proliferation).

MDA-MB-231 cells = test: Cell proliferation assay (alamarBlue), MDA-MB-231; assay type: cell-based; details: Homo sapiens; inhibition of cell proliferation, MDA-MB-231 (breast carcinoma), 96 hours
Protocol: as §1
The MDA-MB-231 cells (DSMZ, ACC 732) were sown at a concentration of 4000 cells/well in 100 μl growth medium (DMEM/Ham's F12 medium, 10% FCS) on 96-well microtitre plates. The Caov-3 cells (ATCC, HTB-75) were sown at a concentration of 2000 cells/well in 100 μl growth medium (MEM Earle's medium, 10% FCS) on 96-well microtitre plates.
as §2

LAPC-4 cells = test: Cell proliferation assay (alamarBlue), LAPC-4; assay type: cell-based; details: Homo sapiens, LAPC4; inhibition of cell proliferation, LAPC-4 (prostate cancer), 1 nM methyltrienolone, 168 hours
Protocol: as §1
The LAPC-4 cells (ATCC, PTA-1441TM) were sown at a concentration of 4000 cells/well in 100 μl growth medium (RPMI1640, 2 mM L-glutamine, 10% cFCS) on 96-well microtitre plates. A day later, the LAPC-4 cells were treated with 1 nM methyltrienolone and various substance dilutions.
as §2

| IC50 (BRD4 (BD1)) [nM] | IC50 (MOLM-13 cells) [nM] | IC50 (MV4-11 cells) [nM] | IC50 (B16F10 cells) [nM] | IC50 (MDA-MB-231 cells) [nM] | SMILES | IC50 (MOLP-8 cells) [nM] | IC50 (Caov-3 cells) [nM] | IC50 (KMS-12-PE cells) [nM] | IC50 (LOX-IMVI cells) [nM] | IC50 (LAPC-4 cells) [nM] |
| --- | --- | --- | --- | --- | --- | --- | --- | --- | --- | --- |
| 80 | 170 | 110 | 180 | 310 | CNC(=O)N1N=C(c2ccc(-c3c(C)noc3C)cc2)c2cc(OC)c(OC)cc2CC1C (racemic) [Example 2, (±)-1-[4-(3,5-Dimethyl-4-isoxazolyl)phenyl]-7,8-dimethoxy-N,4-dimethyl-4,5-dihydro-3H-2,3-benzodiazepine-3-carboxamide] | 120 | 310 | 90 | 430 | 240 |
| 50 | 240 | 260 | 110 | 210 | CNC(=O)N1N=C(c2ccc(-c3cc[nH]n3)cc2)c2cc(OC)c(OC)cc2CC1C (racemic) [Example 3, (±)-7,8-Dimethoxy-N,4-dimethyl-1-[4-(1H-pyrazol-3-yl)phenyl]-4,5-dihydro-3H-2,3-benzodiazepine-3-carboxamide] | 280 | 550 | 230 | 950 | 110 |
| 80 | 190 | 120 | 110 | 170 | CNC(=O)N1N=C(c2ccc(-c3cccnc3Cl)cc2)c2cc(OC)c(OC)cc2CC1C (racemic) [Example 4, (±)-1-[4-(2-chloropyridin-3-yl)phenyl]-7,8-dimethoxy-N,4-dimethyl-4,5-dihydro-3H-2,3-benzodiazepine-3-carboxamide] | 170 | 320 | 110 | 450 | 90 |
| 30 | 200 | 170 | 140 | 250 | CNC(=O)N1N=C(c2ccc(N3CCOCC3)cc2)c2cc(OC)c(OC)cc2CC1C (racemic) [Example 7, (±)-7,8-Dimethoxy-N,4-dimethyl-1-[4-(morpholin-4-yl)phenyl]-4,5-dihydro-3H-2,3-benzodiazepine-3-carboxamide] | 120 | 400 | 90 | 570 | 90 |
| 210 | 1440 | – | 920 | 1300 | CNC(=O)N1N=C(c2ccc(Cl)cc2)c2cc(N3CCCCC3)ccc2CC1C (racemic) [Example 13] | – | – | – | – | 900 |
| 250 | 1510 | – | 1050 | 1390 | CNC(=O)N1N=C(c2ccc(-c3c(C)noc3C)cc2)c2cc(OC)c(OC)cc2C[C@H]1C [Example 2.1, (4R)-1-[4-(3,5-Dimethyl-4-isoxazolyl)phenyl]-7,8-dimethoxy-N,4-dimethyl-4,5-dihydro-3H-2,3-benzodiazepine-3-carboxamide] | – | – | – | – | 710 |
| 60 | 130 | 100 | 110 | 200 | CNC(=O)N1N=C(c2ccc(-c3c(C)noc3C)cc2)c2cc(OC)c(OC)cc2C[C@@H]1C [Example 2.2, (4S)-1-[4-(3,5-Dimethyl-4-isoxazolyl)phenyl]-7,8-dimethoxy-N,4-dimethyl-4,5-dihydro-3H-2,3-benzodiazepine-3-carboxamide] | 120 | 250 | 110 | 330 | 90 |
| 30 | 80 | 880 | 100 | 150 | CNC(=O)N1N=C(c2ccc(-c3c(C)nn(C)c3C)cc2)c2cc(OC)ccc2C[C@@H]1C [Example 22, (4S)-8-methoxy-N,4-dimethyl-1-[4-(1,3,5-trimethyl-1H-pyrazol-4-yl)phenyl]-4,5-dihydro-3H-2,3-benzodiazepine-3-carboxamide] | 90 | 110 | 110 | 240 | 60 |
| 120 | 960 | 760 | 790 | 1280 | CNC(=O)N1N=C(c2ccc(N3CCOCC3=O)cc2)c2cc(OC)c(OC)cc2C[C@@H]1C [Example 40.1, (4S)-7,8-dimethoxy-N,4-dimethyl-1-[4-(3-oxomorpholin-4-yl)phenyl]-4,5-dihydro-3H-2,3-benzodiazepine-3-carboxamide] | 590 | – | 80 | 330 | 290 |
| 50 | 110 | 70 | 100 | 130 | CNC(=O)N1N=C(c2ccc(N3CCN(C)CC3)cc2)c2cc(OC)c(OC)cc2C[C@@H]1C [Example 127.1, (4S)-7,8-Dimethoxy-N,4-dimethyl-1-[4-(4-methylpiperazin-1-yl)phenyl]-4,5-dihydro-3H-2,3-benzodiazepine-3-carboxamide] | 60 | 170 | 90 | 290 | 40 |

| SMILES | IC50 (BRD4 (BD1)) [nM] | IC50 (MOLM-13 cells) [nM] | IC50 (MV4-11 cells) [nM] | IC50 (B16F10 cells) [nM] | IC50 (MDA-MB-231 cells) [nM] | IC50 (MOLP-8 cells) [nM] | IC50 (Caov-3 cells) [nM] | IC50 (KMS-12-PE cells) [nM] | IC50 (LOX-IMVI cells) [nM] | IC50 (LAPC-4 cells) [nM] |
| --- | --- | --- | --- | --- | --- | --- | --- | --- | --- | --- |
| CNC(=O)N1N=C(c2cccnc2)c2cc(OC)ccc2CC1C (racemic) [Example 14, (±)-8-Methoxy-N,4-dimethyl-1-(pyridin-3-yl)-4,5-dihydro-3H-2,3-benzodiazepine-3-carboxamide] | 590 | 3070 | – | 2630 | 3640 | – | – | – | – | 1650 |
| CNC(=O)N1N=C(c2ccc(Cl)cc2)c2cc(OC(F)(F)F)ccc2C[C@@H]1C [Example 1.1, (4S)-1-(4-Chlorophenyl)-N,4-dimethyl-8-(trifluoromethoxy)-4,5-dihydro-3H-2,3-benzodiazepine-3-carboxamide] | 60 | 390 | – | 390 | 530 | 510 | – | – | – | 600 |
| CNC(=O)N1N=C(c2ccc(Cl)cc2)c2cc(OC(F)(F)F)ccc2C[C@H]1C [Example 1.2, (4R)-1-(4-Chlorophenyl)-N,4-dimethyl-8-(trifluoromethoxy)-4,5-dihydro-3H-2,3-benzodiazepine-3-carboxamide] | 2500 | > 10000 | – | > 10000 | > 10000 | – | – | – | – | 5170 |
